# Measured values reported in patent US8022206B2 (OSI Pharmaceuticals, LLC, priority 2008, dated 2011).
# Assays:
# [1] = target: MET (human) (Homo sapiens, UniProt P08581); assay: MET (human) AlphaScreen kinase assay, Km of ATP; type: biochemical; settings: AlphaScreen, Km of ATP; read-out: Met biochemical IC50
# Summary of the method: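 Human MET at lot-optimised concentration in 50 mM Tris pH 7.4 buffer with 1 mM DTT, compound at 1% DMSO final; enzyme starts the reaction, 60 min at RT.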
# [2] = target: RON (human) (Homo sapiens, UniProt Q04912); assay: RON (human) AlphaScreen kinase assay, Km of ATP; type: biochemical; settings: AlphaScreen, Km of ATP; read-out: RON biochemical IC50
# RON (human), sequence (Q04912 25-1400): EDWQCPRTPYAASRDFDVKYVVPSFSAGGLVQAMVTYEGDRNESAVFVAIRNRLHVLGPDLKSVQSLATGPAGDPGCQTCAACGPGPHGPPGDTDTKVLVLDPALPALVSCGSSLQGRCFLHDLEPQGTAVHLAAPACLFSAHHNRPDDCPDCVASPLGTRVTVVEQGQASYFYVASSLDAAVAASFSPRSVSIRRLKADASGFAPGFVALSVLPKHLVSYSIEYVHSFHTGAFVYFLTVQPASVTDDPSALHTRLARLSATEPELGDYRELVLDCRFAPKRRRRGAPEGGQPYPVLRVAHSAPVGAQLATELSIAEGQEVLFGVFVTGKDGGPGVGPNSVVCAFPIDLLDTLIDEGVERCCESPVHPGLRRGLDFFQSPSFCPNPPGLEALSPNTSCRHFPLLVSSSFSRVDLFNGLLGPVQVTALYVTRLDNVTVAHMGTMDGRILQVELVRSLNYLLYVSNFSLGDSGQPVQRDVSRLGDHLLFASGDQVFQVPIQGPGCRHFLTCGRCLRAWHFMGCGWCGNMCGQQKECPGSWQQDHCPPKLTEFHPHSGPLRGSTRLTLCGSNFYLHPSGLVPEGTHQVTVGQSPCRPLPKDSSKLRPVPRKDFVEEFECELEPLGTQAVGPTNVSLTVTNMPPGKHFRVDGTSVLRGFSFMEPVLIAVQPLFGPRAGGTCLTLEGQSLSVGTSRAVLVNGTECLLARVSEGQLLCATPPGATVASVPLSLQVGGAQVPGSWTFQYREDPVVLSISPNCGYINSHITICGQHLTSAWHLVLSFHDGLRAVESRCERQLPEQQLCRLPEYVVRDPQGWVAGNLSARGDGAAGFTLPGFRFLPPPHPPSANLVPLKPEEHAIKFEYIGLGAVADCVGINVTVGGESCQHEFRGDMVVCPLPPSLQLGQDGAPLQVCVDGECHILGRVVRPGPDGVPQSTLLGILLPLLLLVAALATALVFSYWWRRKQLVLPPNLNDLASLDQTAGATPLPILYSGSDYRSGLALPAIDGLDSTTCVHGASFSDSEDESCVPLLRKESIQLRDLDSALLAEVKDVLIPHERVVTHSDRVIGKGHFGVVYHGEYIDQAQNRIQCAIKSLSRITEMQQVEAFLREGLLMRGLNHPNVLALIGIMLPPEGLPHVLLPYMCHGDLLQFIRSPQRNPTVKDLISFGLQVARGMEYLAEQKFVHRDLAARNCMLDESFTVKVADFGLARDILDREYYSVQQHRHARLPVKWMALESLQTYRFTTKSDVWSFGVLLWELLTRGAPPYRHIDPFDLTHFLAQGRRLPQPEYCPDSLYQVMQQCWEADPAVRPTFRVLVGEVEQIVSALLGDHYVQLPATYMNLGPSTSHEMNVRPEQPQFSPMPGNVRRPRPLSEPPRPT
# Summary of the method: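 Detection used PT66 AlphaScreen beads added in Tris pH 7.5/NaCl/EDTA/BSA buffer, read after 1 h incubation. Vehicle-only DMSO wells served as controls.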
# MET (human), sequence (P08581 25-1390): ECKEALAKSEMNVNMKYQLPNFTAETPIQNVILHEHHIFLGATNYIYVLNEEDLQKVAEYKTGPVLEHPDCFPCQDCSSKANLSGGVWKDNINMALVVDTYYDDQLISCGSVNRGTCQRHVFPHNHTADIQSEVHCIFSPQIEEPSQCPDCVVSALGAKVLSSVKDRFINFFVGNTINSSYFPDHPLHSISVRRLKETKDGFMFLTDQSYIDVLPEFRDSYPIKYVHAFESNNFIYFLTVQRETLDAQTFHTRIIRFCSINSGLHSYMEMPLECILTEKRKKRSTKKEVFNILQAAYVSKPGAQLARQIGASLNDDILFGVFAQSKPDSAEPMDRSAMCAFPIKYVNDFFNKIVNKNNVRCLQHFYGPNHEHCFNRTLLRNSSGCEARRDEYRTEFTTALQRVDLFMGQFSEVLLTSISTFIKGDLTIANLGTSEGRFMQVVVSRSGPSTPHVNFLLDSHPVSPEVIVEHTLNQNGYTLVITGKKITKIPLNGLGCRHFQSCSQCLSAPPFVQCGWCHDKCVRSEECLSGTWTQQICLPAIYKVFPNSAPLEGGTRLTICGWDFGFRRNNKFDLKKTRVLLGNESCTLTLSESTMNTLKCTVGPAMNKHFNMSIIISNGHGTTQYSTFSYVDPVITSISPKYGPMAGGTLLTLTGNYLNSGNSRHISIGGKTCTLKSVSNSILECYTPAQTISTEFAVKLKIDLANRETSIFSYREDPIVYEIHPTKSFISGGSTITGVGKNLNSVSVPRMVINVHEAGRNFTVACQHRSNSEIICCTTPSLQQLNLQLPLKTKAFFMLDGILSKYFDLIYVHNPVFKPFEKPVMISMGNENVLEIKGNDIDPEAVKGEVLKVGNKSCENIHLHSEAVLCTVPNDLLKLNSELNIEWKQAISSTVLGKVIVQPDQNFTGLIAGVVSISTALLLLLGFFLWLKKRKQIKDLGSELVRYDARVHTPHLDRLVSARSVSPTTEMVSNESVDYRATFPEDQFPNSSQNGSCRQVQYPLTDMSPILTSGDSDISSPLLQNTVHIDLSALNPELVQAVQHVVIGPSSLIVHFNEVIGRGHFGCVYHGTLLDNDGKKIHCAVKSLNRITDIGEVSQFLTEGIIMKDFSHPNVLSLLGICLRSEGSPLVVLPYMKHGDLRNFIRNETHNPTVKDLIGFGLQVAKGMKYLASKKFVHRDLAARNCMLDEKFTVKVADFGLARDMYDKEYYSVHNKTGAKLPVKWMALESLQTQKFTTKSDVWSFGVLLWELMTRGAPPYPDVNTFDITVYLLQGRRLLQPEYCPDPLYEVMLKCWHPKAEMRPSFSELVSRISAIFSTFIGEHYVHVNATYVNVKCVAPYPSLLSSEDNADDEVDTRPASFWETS
IC50 [1] [nM],IC50 [2] [nM],Structure (SMILES)
< 500,< 500,"C[C@@H](Oc1c(N)ncc2c(C3=CCN(C(=O)[C@H]4CCCNC4)CC3)coc12)c1c(Cl)ccc(F)c1Cl [Example 240, (4-{6-Amino-7-[(R)-1-(2,6-dichloro-3-fluorophenyl)ethoxy]-furo[3,2-c]pyridin-3-yl}-3,6-dihydro-2H-pyridin-1-yl)-(S)-piperidin-3-ylmethanone]"
< 500,500 to 5000,"C[C@H](Oc1c(N)ncc2c(-c3cnn(C4CCNCC4)c3)coc12)c1ccncc1 [Example 396, 3-(1-Piperidin-4-yl-1H-pyrazol-4-yl)-7-((S)-1-pyridin-4-yl-ethoxy)furo[3,2-c]pyridin-6-ylamine]"
500 to 5000,500 to 5000,"C[C@@H](Oc1c(N)ncc2c(-c3ccc(N4CCOCC4)nc3)coc12)c1c(Cl)ccc(F)c1Cl [Example 107, 7-[(R)-1-(2,6-Dichloro-3-fluorophenyl)ethoxy]-3-(6-morpholin-4-ylpyridin-3-yl)-furo[3,2-c]pyridin-6-ylamine]"
< 500,< 500,"CC(Oc1c(N)ncc2c(-c3cnn(C4CCNCC4)c3)coc12)c1c(Cl)c(F)cc(OCCCN(C)C)c1Cl (centres unmarked) [Example 156, 7-(1-{2,6-Dichloro-3-[3-(dimethylamino)propoxy]-5-fluorophenyl}ethoxy)-3-[1-(piperidin-4-yl)-1H-pyrazol-4-yl]furo[3,2-c]pyridin-6-amine]"
< 500,< 500,"C[C@@H](Oc1c(N)ncc2c(-c3ccnc(N4CCNCC4)c3)coc12)c1c(Cl)ccc(F)c1Cl [Example 132, 7-[(R)-(2,6-Dichloro-3-fluorophenyl)ethoxy]-3-(2-piperazin-1-yl-pyridin-4-yl)furo[3,2-c]pyridin-6-ylamine]"
< 500,500 to 5000,"CC(Oc1c(N)ncc2c(-c3cnn(C4CCNCC4)c3)coc12)c1c(F)cccc1F (centres unmarked) [Example 383, 7-[1-(2,6-Difluorophenyl)ethoxy]-3-(1-piperidin-4-yl-1H-pyrazol-4-yl)furo[3,2-c]pyridin-6-ylamine]"
500 to 5000,500 to 5000,"C[C@@H](Oc1c(N)ncc2c(-c3cccn3C)coc12)c1c(Cl)ccc(F)c1Cl [Example 121, 7-[(R)-1-(2,6-Dichloro-3-fluorophenyl)ethoxy]-3-(1-methyl-1H-pyrrol-2-yl)furo[3,2-c]pyridin-6-ylamine]"
500 to 5000,500 to 5000,"CC(Oc1c(N)ncc2c(-c3cnn(C4CCNCC4)c3)coc12)c1cccc(OC(F)(F)F)c1 (centres unmarked) [Example 352, 3-(1-Piperidin-4-yl-1H-pyrazol-4-yl)-7-[1-(3-trifluoromethoxy-phenyl)ethoxy]furo[3,2-c]pyridin-6-ylamine]"
< 500,5000 to 20000,"CCNC(=O)c1coc2c(O[C@H](C)c3c(Cl)ccc(F)c3Cl)c(N)ncc12 [Example 179, 6-Amino-7-[(R)-1-(2,6-dichloro-3-fluorophenyl)ethoxy]furo[3,2-c]pyridine-3-carboxylic acid ethylamide]"
< 500,500 to 5000,"C[C@H](Oc1c(N)ncc2c(C3=CCN(C(N)=O)CC3)coc12)c1c(Cl)ccc(F)c1Cl [Example 456, 4-{6-Amino-7-[(S)-1-(2,6-dichloro-3-fluorophenyl)ethoxy]furo[3,2-c]pyridin-3-yl}-3,6-dihydro-2H-pyridine-1-carboxamide]"
500 to 5000,500 to 5000,"C[C@@H](Oc1c(N)ncc2c(C3=CCN(C(=O)Nc4ccccc4F)CC3)coc12)c1c(Cl)ccc(F)c1Cl [Example 150, 4-{6-Amino-7-[(1R)-1-(2,6-dichloro-3-fluorophenyl)ethoxy]furo[3,2-c]pyridin-3-yl}-N-(2-fluorophenyl)-3,6-dihydropyridine-1(2H)-carboxamide]"
< 500,500 to 5000,"C[C@@H](Oc1c(N)ncc2c(C(=O)NCCCN(C)C)coc12)c1c(Cl)ccc(F)c1Cl [Example 189, 6-Amino-7-[(R)-1-(2,6-dichloro-3-fluorophenyl)ethoxy]furo[3,2-c]pyridine-3-carboxylic acid (3-dimethylaminopropyl)amide]"
500 to 5000,500 to 5000,"C[C@@H](Oc1c(N)ncc2c(C3=CCN(C(=O)N4CCCCC4)CC3)coc12)c1c(Cl)ccc(F)c1Cl [Example 32, (4-{6-Amino-7-[(R)-1-(2,6-dichloro-3-fluorophenyl)-ethoxy]-furo[3,2-c]pyridin-3-yl}-3,6-dihydro-2H-pyridin-1-yl)-piperidin-1-ylmethanone]"
< 500,< 500,"C[C@@H](Oc1c(N)ncc2c(-c3ccc(C(=O)N4CCNCC4)cc3)coc12)c1c(Cl)ccc(F)c1Cl [Example 106, (4-{6-Amino-7-[(R)-1-(2,6-dichloro-3-fluorophenyl)ethoxy]furo[3,2-c]pyridin-3-yl}phenyl)piperazin-1-ylmethanone]"
500 to 5000,5000 to 20000,"C[C@@H](Oc1c(N)ncc2c(C(=O)NC3CCN(C(=O)OC(C)(C)C)CC3)coc12)c1c(Cl)ccc(F)c1Cl [Example 181, 4-({6-Amino-7-[(R)-1-(2,6-dichloro-3-fluorophenyl)ethoxy]furo[3,2-c]pyridine-3-carbonyl}-amino)-piperidine-1-carboxylic acid tert-butyl ester]"
500 to 5000,500 to 5000,"CC(=O)Nc1ccc(-c2coc3c(O[C@H](C)c4c(Cl)ccc(F)c4Cl)c(N)ncc23)cn1 [Example 120, N-(5-{6-Amino-7-[(R)-1-(2,6-dichloro-3-fluorophenyl)ethoxy]furo[3,2-c]pyridin-3-yl}pyridin-2-yl)acetamide]"
500 to 5000,500 to 5000,"C[C@@H](Oc1c(N)ncc2c(-c3cnn(C4CCNCC4)c3)coc12)c1ccccn1 [Example 399, 3-(1-Piperidin-4-yl-1H-pyrazol-4-yl)-7-((R)-1-pyridin-2-yl-ethoxy)furo[3,2-c]pyridin-6-ylamine]"
< 500,500 to 5000,"Nc1ncc2c(-c3cnn(C4CCNCC4)c3)coc2c1O[C@@H](c1ccccc1)C(F)(F)F [Example 391, 3-(1-Piperidin-4-yl-1H-pyrazol-4-yl)-7-((S)-2,2,2-trifluoro-1-phenylethoxy)furo[3,2-c]pyridin-6-ylamine]"
< 500,< 500,"CC(Oc1c(N)ncc2c(-c3cnn(C4CCNCC4)c3)coc12)c1c(Cl)c(F)cc(OC2CNC2)c1Cl (centres unmarked) [Example 159, 7-{1-[3-(Azetidin-3-yloxy)-2,6-dichloro-5-fluorophenyl]ethoxy}-3-[1-(piperidin-4-yl)-1H-pyrazol-4-yl]furo[3,2-c]pyridin-6-amine]"
500 to 5000,< 500,"C[C@@H](Oc1c(N)ncc2c(C3=CCN(C(=O)[C@@H](O)c4ccccc4)CC3)coc12)c1c(Cl)ccc(F)c1Cl [Example 265, (2S)-1-[4-{6-Amino-7-[(1R)-1-(2,6-dichloro-3-fluorophenyl)ethoxy]furo[3,2-c]pyridin-3-yl}-3,6-dihydropyridin-1(2H)-yl]-2-hydroxy-2-phenylethanone]"
500 to 5000,500 to 5000,"C[C@@H](Oc1c(N)ncc2c(-c3csc(C(=O)N4CCC(O)CC4)c3)coc12)c1c(Cl)ccc(F)c1Cl [Example 313, (4-{6-Amino-7-[(R)-1-(2,6-dichloro-3-fluorophenyl)ethoxy]-furo[3,2-c]pyridin-3-yl}-thiophen-2-yl)-(4-hydroxypiperidin-1-yl)methanone]"
500 to 5000,500 to 5000,"C[C@@H](Oc1c(N)ncc2c(-c3ccc(C(=O)NCCCO)cc3)coc12)c1c(Cl)ccc(F)c1Cl [Example 288, 4-{6-Amino-7-[(R)-1-(2,6-dichloro-3-fluorophenyl)ethoxy]furo[3,2-c]pyridin-3-yl}-N-(3-hydroxypropyl)benzamide]"
500 to 5000,500 to 5000,"CNC(=O)c1cccc(C(C)Oc2c(N)ncc3c(-c4cnn(C5CCNCC5)c4)coc23)c1 (centres unmarked) [Example 412, 3-{1-[6-Amino-3-(1-piperidin-4-yl-1H-pyrazol-4-yl)furo[3,2-c]pyridin-7-yloxy]ethyl}-N-methylbenzamide]"
500 to 5000,500 to 5000,"CN/C(=N/C#N)N1CC=C(c2coc3c(O[C@H](C)c4c(Cl)ccc(F)c4Cl)c(N)ncc23)CC1 [Example 198, 4-{6-Amino-7-[(R)-1-(2,6-dichloro-3-fluorophenyl)ethoxy]-furo[3,2-c]pyridin-3-yl}-N-cyano-N′-methyl-3,6-dihydro-2H-pyridine-1-carboxamidine]"
< 500,< 500,"C[C@@H](Oc1c(N)ncc2c(-c3csc(CN4CCC(O)C4)c3)coc12)c1c(Cl)ccc(F)c1Cl (stereo partly drawn) [Example 307, 1-(4-{6-Amino-7-[(R)-1-(2,6-dichloro-3-fluorophenyl)-ethoxy]furo[3,2-c]pyridin-3-yl}thiophen-2-ylmethyl)pyrrolidin-3-ol]"

Structure (SMILES),IC50 [1] [nM],IC50 [2] [nM]
"C[C@@H](Oc1c(N)ncc2c(C3=CC4CCC(C3)N4)coc12)c1c(Cl)ccc(F)c1Cl (stereo partly drawn) [Example 153, 3-(8-Azabicyclo[3.2.1]oct-2-en-3-yl)-7-[(1R)-1-(2,6-dichloro-3-fluorophenyl)ethoxy]furo[3,2-c]pyridin-6-amine]",< 500,500 to 5000
"CNC(=O)CN1CC=C(c2coc3c(O[C@H](C)c4c(Cl)ccc(F)c4Cl)c(N)ncc23)CC1 [Example 201, 2-(4-{6-Amino-7-[(R)-1-(2,6-dichloro-3-fluorophenyl)ethoxy]-furo[3,2-c]pyridin-3-yl}-3,6-dihydro-2H-pyridin-1-yl)-N-methylacetamide]",< 500,500 to 5000
"C[C@@H](Oc1c(N)ncc2c(C3=CCN(C4CNC4)CC3)coc12)c1c(Cl)ccc(F)c1Cl [Example 322, 3-(1-Azetidin-3-yl-1,2,3,6-tetrahydropyridin-4-yl)-7-[(R)-1-(2,6-dichloro-3-fluorophenyl)ethoxy]furo[3,2-c]pyridin-6-ylamine]",< 500,< 500
